Tested on: MDA-MB-468 cells
Assay: In vitro cell activity, MDA-MB-468 cells, CCK-8
Assay type: cell-based
Settings: Homo sapiens, MDA-MB-468, 168 h, read-out: IC50 MDA-MB-468 Cell, triple negative breast cancer cells, 7 days
Method: Test compounds: the compounds of the present invention prepared in the above example. Each compound was formulated into a 10 mM stock solution with DMSO, and finally diluted into 8 concentrations for detection, with the final concentrations being 33333.00 nM, 6666.60 nM, 1333.32 nM, 266.66 nM, 53.33 nM, 10.67 nM, 2.13 nM, and 0.43 nM for experiments in Z-138 cells.
After thawing, the cryovial was taken out, and sterilized with an alcohol cotton ball, after which the cap was unscrewed. The cell fluid was drawn and injected into a centrifuge tube. 1 mL of L-15 medium containing 10% FBS was added, and mixed uniformly. The tube was placed in a centrifuge, and centrifuged at 1000 rpm for 5 min. Afterwards, the supernatant was discarded, and complete medium was added. The mixture was pipetted repeatedly until the cells were completely dispersed and resuspended. The mixture was inoculated in a petri dish at an appropriate concentration, and cultured in a CO2-free incubator at 37° C., and 95% humidified air.
The medium (Leibovitz's L-15 Medium+10% FBS+1% penicillin-streptomycin) was transferred to a 15 mL centrifuge tube, and centrifuged at 1000 rpm for 5 min. The supernatant was removed. The cells were resuspended in complete medium, and inoculated in a petri dish at the desired density. The dish was placed in a CO2-free incubator at 37° C., and 95% humid air. The culture medium was changed every 2-3 days or the passage was carried out, depending on the cell growth.
After passage, MDA-MB-468 cells were resuspended in complete medium at the corresponding density, 2000 cells/well, and inoculated in a 96-well culture plate. The wells at the outer circumference were filled with 200 μL PBS to prevent the culture conditions of the inner plate wells from being too different from each other due to the faster evaporation of medium at the edge. The leftmost column of the 60 inner wells were blank wells, which were not added with cells, but filled with equal volume of PBS. The remaining 54 wells were subjected to cell plating with a multichannel pipette, to each well was added 100 μL. The plate was placed in a CO2-free incubator and cultured at 37° C. for 24 h. […]
The first column of PBS was used as a blank control well, and 100 μL of CCK-8 was added synchronously thereto. […] The optimal detection time was determined according to the shade of color developed by CCK-8 (the optimal OD value for the DMSO group was about 1.0). […] The microplate reader software was opened, the detection parameters were adjusted, and the absorbance at 450 nm (OD value) was detected. The cover of the culture plate was removed, and the culture plate was directly placed horizontally in the plate groove to start reading. After the reading was finished, the program was saved, and the data was exported. […]

Structure (SMILES): CC(=O)N1CCC(Nc2cc(C(=O)NC[C@H](O)CN3CCc4ccccc4C3)ncn2)CC1 [Compound A, (S)-6-((1-Acetylpiperidin-4-yl)amino)-N-(3-(3,4-dihydroisoquinolin-2(1H)-yl)-2-hydroxypropyl)pyrimidine-4-carboxamide]
- IC50: 116 nM

Structure (SMILES): CC(=O)N1CCC(Nc2ccc3c(c2)C(=O)N(C[C@H](O)CN2CCc4ccccc4C2)CC32CC2)CC1 [Compound B, (R)-7′-((1-Acetylpiperidin-4-yl)amino)-2′-(3-(3,4-dihydroisoquinolin-2(1H)-yl)-2-hydroxypropyl)-2′,3′-dihydro-1′H-spiro[cyclopropane-1,4′-isoquinolin]-1′-one, reference compound]
- IC50: 41.3 nM

Structure (SMILES): CC(=O)N1CCC(Nc2cc3c(cn2)C2(CC2)CN(C[C@H](O)CN2CCc4ccccc4C2)C3=O)CC1 [Example 1, (R)-7′-((1-acetylpiperidin-4-yl)amino)-2′-(3-(3,4-dihydroisoquinolin-2(1H)-yl)-2-hydroxypropyl)-2′,3′-dihydro-1′H-spiro[cyclopropane-1,4′-[2,6]naphthyridin]-1′-one]
- IC50: 11.6 nM

Structure (SMILES): CC(=O)N1CC2(CC(Nc3cc4c(cn3)C3(CC3)CN(C[C@H](O)CN3CCc5ccccc5C3)C4=O)C2)C1 [Example 2, (R)-7′-((2-acetyl-2-azaspiro[3.3]hept-6-yl)amino)-2′-(3-(3,4-dihydroisoquinolin-2(1H)-yl)-2-hydroxypropyl)-2′,3′-dihydro-1′H-spiro[cyclopropane-1,4′-[2,6]naphthyridin]-1-one]
- IC50: 7.35 nM

— patent US20240116918A1, “SUBSTITUTED TRICYCLIC COMPOUND AS PRMT5 INHIBITOR AND USE THEREOF” (NANJING SANHOME PHARMACEUTICAL CO., LTD., priority 2019, published 2024)
